Experimental data taken from ChEMBL document CHEMBL1201862, “PubChem BioAssay data set” (2004).
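Five concentrations, 48 hours, 96-well plates. Here, GI50 denotes the concentration required for 50% inhibition of growth.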 The source made the active and inactive calls. No stated cut-off is given here; in the data, active = GI50 up to about 1.1 µM and inactive = higher.

How the values were obtained:
Test in all cases: NCI anticancer screen, dose series, 48 h
SNB-75 = system: SNB-75
MDA-MB-231 = system: MDA-MB-231
HCT-15 = system: HCT-15
SK-MEL-5 = system: SK-MEL-5
Malme-3M = system: Malme-3M
EKVX = system: EKVX
M14 = system: M14
786-0 = system: 786-0
A549 = system: A549
PC-3 = system: PC-3
CAKI-1 = system: CAKI-1
NCI-H23 = system: NCI-H23
HCC 2998 = system: HCC 2998
SW-620 = system: SW-620
HOP-62 = system: HOP-62
KM12 = system: KM12
SR = system: SR
SN12C = system: SN12C
SK-MEL-28 = system: SK-MEL-28
CCRF-CEM = system: CCRF-CEM
SK-OV-3 = system: SK-OV-3
MDA-N = system: MDA-N
T47D = system: T47D
SF-295 = system: SF-295
MOLT-4 = system: MOLT-4
UACC-62 = system: UACC-62
IGROV-1 = system: IGROV-1
RXF 393 = system: RXF 393
COLO 205 = system: COLO 205
DU-145 = system: DU-145
TK-10 = system: TK-10
RPMI-8226 = system: RPMI-8226
MCF7 = system: MCF7
OVCAR-8 = system: OVCAR-8
SF-268 = system: SF-268
NCI-H522 = system: NCI-H522
NCI/ADR-RES = system: NCI/ADR-RES
LOX IMVI = system: LOX IMVI
SK-MEL-2 = system: SK-MEL-2
HL-60 = system: HL-60
UACC-257 = system: UACC-257
HOP-92 = system: HOP-92
OVCAR-5 = system: OVCAR-5
HCT-116 = system: HCT-116
SF-539 = system: SF-539
A498 = system: A498
OVCAR-4 = system: OVCAR-4
K562 = system: K562
ACHN = system: ACHN
U-251 = system: U-251
SNB-19 = system: SNB-19
MDA-MB-435 = system: MDA-MB-435
HT-29 = system: HT-29
OVCAR-3 = system: OVCAR-3
NCI-H226 = system: NCI-H226
UO-31 = system: UO-31
Hs-578T = system: Hs-578T
NCI-H460 = system: NCI-H460

c1ccc(COC[C@H]2O[C@@H](c3ccccc3)C[C@@H](OCc3ccccc3)C2OCc2ccccc2)cc1 (stereo partly specified)
GI50 (SNB-75): > 10 µM (inactive)
GI50 (MDA-MB-231): > 10 µM (inactive)
GI50 (HCT-15): > 10 µM
GI50 (SK-MEL-5): > 10 µM (inactive)
GI50 (Malme-3M): > 10 µM (inactive)
GI50 (EKVX): > 10 µM (inactive)
GI50 (M14): > 10 µM (inactive)
GI50 (786-0): > 10 µM (inactive)
GI50 (A549): > 10 µM (inactive)
GI50 (PC-3): > 10 µM (inactive)
GI50 (CAKI-1): > 10 µM (inactive)
GI50 (NCI-H23): > 10 µM (inactive)
GI50 (HCC 2998): > 10 µM (inactive)
GI50 (SW-620): > 10 µM (inactive)
GI50 (HOP-62): > 10 µM (inactive)
GI50 (KM12): > 10 µM (inactive)
GI50 (SR): > 10 µM (inactive)
GI50 (SN12C): > 10 µM (inactive)
GI50 (SK-MEL-28): > 10 µM (inactive)
GI50 (CCRF-CEM): > 10 µM (inactive)
GI50 (SK-OV-3): > 10 µM (inactive)
GI50 (MDA-N): > 10 µM (inactive)
GI50 (T47D): > 10 µM (inactive)
GI50 (SF-295): > 10 µM (inactive)
GI50 (MOLT-4): > 10 µM (inactive)
GI50 (UACC-62): > 10 µM (inactive)
GI50 (IGROV-1): > 10 µM (inactive)
GI50 (RXF 393): > 10 µM (inactive)
GI50 (COLO 205): > 10 µM (inactive)
GI50 (DU-145): > 10 µM (inactive)
GI50 (TK-10): > 10 µM (inactive)
GI50 (RPMI-8226): > 10 µM (inactive)
GI50 (MCF7): > 10 µM (inactive)
GI50 (OVCAR-8): > 10 µM (inactive)
GI50 (SF-268): > 10 µM (inactive)

Oc1ccc(/C=N/NC(=S)Nc2cccnc2)nc1
GI50 (NCI-H522): 1.97 µM (inactive)
GI50 (NCI/ADR-RES): 2.46 µM (inactive)
GI50 (SNB-75): 19.6 µM (inactive)
GI50 (LOX IMVI): 3.26 µM (inactive)
GI50 (MDA-MB-231): 2.32 µM (inactive)
GI50 (HCT-15): 5.27 µM
GI50 (SK-MEL-2): 7.08 µM (inactive)
GI50 (SK-MEL-5): 9.59 µM (inactive)
GI50 (HL-60): 3.76 µM (inactive)
GI50 (Malme-3M): 2.07 µM (inactive)
GI50 (EKVX): 12.6 µM (inactive)
GI50 (M14): 6.1 µM (inactive)
GI50 (UACC-257): 13.7 µM (inactive)
GI50 (786-0): 8.43 µM (inactive)
GI50 (A549): 38.3 µM (inactive)
GI50 (PC-3): > 22 µM (inactive)
GI50 (HOP-92): 5.38 µM (inactive)
GI50 (OVCAR-5): 40.3 µM (inactive)
GI50 (CAKI-1): 20.7 µM (inactive)
GI50 (NCI-H23): 8.15 µM (inactive)
GI50 (HCT-116): 4.49 µM (inactive)
GI50 (SF-539): 4.49 µM (inactive)
GI50 (A498): 33.7 µM (inactive)
GI50 (HCC 2998): > 51.1 µM (inactive)
GI50 (SW-620): 4.82 µM (inactive)
GI50 (HOP-62): 12 µM (inactive)
GI50 (KM12): 6.71 µM (inactive)
GI50 (OVCAR-4): > 76.6 µM (inactive)
GI50 (SR): 0.134 µM (active)
GI50 (SN12C): 6.93 µM (inactive)
GI50 (SK-MEL-28): 6.18 µM (inactive)
GI50 (CCRF-CEM): 3.27 µM (inactive)
GI50 (SK-OV-3): 8.99 µM (inactive)
GI50 (MDA-N): 13.4 µM (inactive)
GI50 (K562): 3.99 µM (inactive)
GI50 (T47D): 8.69 µM (inactive)
GI50 (SF-295): 19.9 µM (inactive)
GI50 (MOLT-4): 2.8 µM (inactive)
GI50 (UACC-62): 6.97 µM (inactive)
GI50 (IGROV-1): 14.7 µM (inactive)
GI50 (COLO 205): 3.98 µM (inactive)
GI50 (DU-145): 3.72 µM (inactive)
GI50 (ACHN): 4.76 µM (inactive)
GI50 (U-251): 6.22 µM (inactive)
GI50 (RPMI-8226): 16.7 µM (inactive)
GI50 (SNB-19): 22.7 µM (inactive)
GI50 (MDA-MB-435): 5.9 µM (inactive)
GI50 (HT-29): 5.33 µM (inactive)
GI50 (MCF7): 7.89 µM (inactive)
GI50 (OVCAR-3): 1.07 µM (active)
GI50 (NCI-H226): 33.3 µM (inactive)
GI50 (UO-31): 2.78 µM (inactive)
GI50 (OVCAR-8): 2.79 µM (inactive)
GI50 (SF-268): 1.39 µM (inactive)

Cc1cccc(C(O)c2ccncc2)c1O (stereo unspecified)
GI50 (NCI-H522): > 100 µM (inactive)
GI50 (NCI/ADR-RES): > 100 µM (inactive)
GI50 (SNB-75): 76.6 µM (inactive)
GI50 (LOX IMVI): > 100 µM (inactive)
GI50 (HCT-15): > 100 µM
GI50 (SK-MEL-5): > 100 µM (inactive)
GI50 (HL-60): > 100 µM (inactive)
GI50 (Hs-578T): > 100 µM (inactive)
GI50 (EKVX): > 100 µM (inactive)
GI50 (M14): > 100 µM (inactive)
GI50 (UACC-257): > 100 µM (inactive)
GI50 (A549): > 100 µM (inactive)
GI50 (PC-3): > 100 µM (inactive)
GI50 (NCI-H23): > 100 µM (inactive)
GI50 (HCT-116): > 100 µM (inactive)
GI50 (SF-539): > 100 µM (inactive)
GI50 (HCC 2998): > 100 µM (inactive)
GI50 (HOP-62): > 100 µM (inactive)
GI50 (KM12): > 100 µM (inactive)
GI50 (SN12C): > 100 µM (inactive)
GI50 (CCRF-CEM): > 100 µM (inactive)
GI50 (K562): > 100 µM (inactive)
GI50 (T47D): 12.6 µM (inactive)
GI50 (SF-295): > 100 µM (inactive)
GI50 (MOLT-4): > 100 µM (inactive)
GI50 (UACC-62): 25.8 µM (inactive)
GI50 (RXF 393): 91.6 µM (inactive)
GI50 (DU-145): > 100 µM (inactive)
GI50 (ACHN): > 100 µM (inactive)
GI50 (U-251): > 100 µM (inactive)
GI50 (SNB-19): > 100 µM (inactive)
GI50 (OVCAR-3): > 100 µM (inactive)
GI50 (NCI-H226): > 100 µM (inactive)
GI50 (UO-31): > 100 µM (inactive)
GI50 (OVCAR-8): > 100 µM (inactive)
GI50 (SF-268): > 100 µM (inactive)

CCCCCC(C/C=N/N(C)C)C(O)(C(F)(F)F)C(F)(F)F (stereo unspecified)
GI50 (NCI-H522): 19.7 µM (inactive)
GI50 (NCI/ADR-RES): > 100 µM (inactive)
GI50 (SNB-75): 29 µM (inactive)
GI50 (LOX IMVI): 43.2 µM (inactive)
GI50 (MDA-MB-231): 27.5 µM (inactive)
GI50 (HCT-15): 49.8 µM
GI50 (SK-MEL-2): 25.9 µM (inactive)
GI50 (SK-MEL-5): 16.6 µM (inactive)
GI50 (HL-60): 14.2 µM (inactive)
GI50 (Hs-578T): 35.6 µM (inactive)
GI50 (Malme-3M): 25.4 µM (inactive)
GI50 (EKVX): 41.6 µM (inactive)
GI50 (M14): 38.7 µM (inactive)
GI50 (786-0): 35.9 µM (inactive)
GI50 (A549): 37.2 µM (inactive)
GI50 (PC-3): 20.8 µM (inactive)
GI50 (HOP-92): 33 µM (inactive)
GI50 (OVCAR-5): 65.6 µM (inactive)
GI50 (CAKI-1): 43.6 µM (inactive)
GI50 (NCI-H23): 25.2 µM (inactive)
GI50 (HCT-116): 32 µM (inactive)
GI50 (SF-539): 35.2 µM (inactive)
GI50 (A498): 23.7 µM (inactive)
GI50 (HCC 2998): 35.1 µM (inactive)
GI50 (SW-620): 38 µM (inactive)
GI50 (HOP-62): 42.3 µM (inactive)
GI50 (KM12): 36.3 µM (inactive)
GI50 (OVCAR-4): 53.2 µM (inactive)
GI50 (SR): 34.8 µM (inactive)
GI50 (SN12C): 28.2 µM (inactive)
GI50 (SK-MEL-28): 45.8 µM (inactive)
GI50 (CCRF-CEM): 17.1 µM (inactive)
GI50 (SK-OV-3): 33.9 µM (inactive)
GI50 (MDA-N): 38.4 µM (inactive)
GI50 (K562): 22.5 µM (inactive)
GI50 (T47D): 25.9 µM (inactive)
GI50 (SF-295): 42.5 µM (inactive)
GI50 (NCI-H460): 36.4 µM (inactive)
GI50 (MOLT-4): 29.4 µM (inactive)
GI50 (UACC-62): 59.8 µM (inactive)
GI50 (IGROV-1): 19 µM (inactive)
GI50 (RXF 393): 32 µM (inactive)
GI50 (COLO 205): 16.3 µM (inactive)
GI50 (DU-145): 33.3 µM (inactive)
GI50 (ACHN): 24.4 µM (inactive)
GI50 (U-251): 25.4 µM (inactive)
GI50 (TK-10): 54.2 µM (inactive)
GI50 (RPMI-8226): 11.3 µM (inactive)
GI50 (SNB-19): 37 µM (inactive)
GI50 (MDA-MB-435): 31 µM (inactive)
GI50 (HT-29): 29 µM (inactive)
GI50 (OVCAR-3): 9.31 µM (inactive)
GI50 (NCI-H226): 41.5 µM (inactive)
GI50 (UO-31): 36.2 µM (inactive)
GI50 (OVCAR-8): 41.5 µM (inactive)
GI50 (SF-268): 36.7 µM (inactive)
